ChEMBL document CHEMBL1201862, “PubChem BioAssay data set” (2004)
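Tested at 5 concentrations; 48 h exposure; 96-well plates; endpoints linearly interpolated, else capped at highest concentration. GI50 marks 50% less growth.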 Activity calls are given as the source filed them. Cut-off read from the data, not from the text of the source: active = GI50 up to about 1.1 µM and inactive = higher.

Assays:
Experiment in all cases: NCI anticancer screen, dose series, 48 h
SN12C = system: SN12C
NCI-H522 = system: NCI-H522
ACHN = system: ACHN
SNB-19 = system: SNB-19
HOP-62 = system: HOP-62
EKVX = system: EKVX
UACC-62 = system: UACC-62
LOX IMVI = system: LOX IMVI
HOP-92 = system: HOP-92
Malme-3M = system: Malme-3M
UO-31 = system: UO-31
RPMI-8226 = system: RPMI-8226
SF-295 = system: SF-295
SK-MEL-28 = system: SK-MEL-28
KM12 = system: KM12
K562 = system: K562
Hs-578T = system: Hs-578T
T47D = system: T47D
MDA-MB-231 = system: MDA-MB-231

Measured: GI50

COc1ccc(/N=C/c2ccc(N(CCC#N)S(=O)(=O)c3ccccc3)cc2)cc1
inactive: SN12C > 100 µM | NCI-H522 > 100 µM | ACHN > 100 µM | SNB-19 > 100 µM | HOP-62 > 100 µM | EKVX > 100 µM | UACC-62 > 100 µM | LOX IMVI > 100 µM | HOP-92 > 100 µM | Malme-3M > 100 µM | UO-31 > 100 µM | RPMI-8226 > 100 µM | SF-295 > 100 µM | SK-MEL-28 > 100 µM | KM12 > 100 µM | K562 68.1 µM

CCCCCCCSCC1C(=O)C23C(O)C1CCC2C12COC3(O)C(O)C1C(C)(C)CCC2O (centres undefined)
inactive: SN12C 8.41 µM | NCI-H522 1.4 µM | ACHN 12.4 µM | SNB-19 18.9 µM | HOP-62 20.3 µM | EKVX 17.7 µM | UACC-62 11.5 µM | LOX IMVI 13.3 µM | HOP-92 13.9 µM | Malme-3M 14.1 µM | UO-31 11.2 µM | RPMI-8226 4.06 µM | SF-295 17.9 µM | SK-MEL-28 9.51 µM | KM12 10.6 µM | K562 3.98 µM

O=C(Nc1c(O)[nH]c(=S)[nH]c1=O)c1ccccc1F
inactive: SN12C > 100 µM | NCI-H522 > 100 µM | ACHN > 100 µM | SNB-19 > 100 µM | HOP-62 > 100 µM | UACC-62 > 100 µM | LOX IMVI > 100 µM | HOP-92 > 100 µM | Malme-3M > 100 µM | UO-31 > 100 µM | RPMI-8226 > 100 µM | SF-295 > 100 µM | SK-MEL-28 > 100 µM | KM12 > 100 µM | K562 > 100 µM

C/C(=N/NC(=O)C(N)=O)C(CC(C(=O)Nc1ccccc1C)/C(C)=N\NC(=O)C(N)=O)C(=O)Nc1ccccc1C (centres undefined)
inactive: SN12C > 100 µM | NCI-H522 66.4 µM | ACHN 83.2 µM | SNB-19 > 100 µM | HOP-62 > 100 µM | EKVX > 100 µM | LOX IMVI > 100 µM | HOP-92 47.1 µM | Malme-3M > 100 µM | UO-31 70.5 µM | RPMI-8226 > 100 µM | SF-295 > 100 µM | SK-MEL-28 > 100 µM | KM12 > 100 µM | K562 > 100 µM

O=C1CC(c2ccccc2)[S+]([O-])c2ccccc2N1 (centres undefined)
inactive: SN12C > 100 µM | NCI-H522 > 100 µM | Hs-578T > 100 µM | ACHN > 100 µM | SNB-19 > 100 µM | HOP-62 > 100 µM | EKVX > 100 µM | T47D > 100 µM | UACC-62 > 100 µM | LOX IMVI > 100 µM | Malme-3M > 100 µM | MDA-MB-231 > 100 µM | UO-31 > 100 µM | RPMI-8226 > 100 µM | SF-295 > 10 µM | SK-MEL-28 > 100 µM | KM12 > 100 µM | K562 > 100 µM

Cc1c(C)c2cc3c(=O)ccoc3c(C)c2oc1=O
inactive: SN12C 56.6 µM | NCI-H522 69.8 µM | ACHN > 100 µM | SNB-19 48.6 µM | HOP-62 > 100 µM | EKVX > 100 µM | UACC-62 21.9 µM | LOX IMVI 54 µM | Malme-3M > 100 µM | UO-31 24.4 µM | RPMI-8226 > 100 µM | SF-295 > 100 µM | SK-MEL-28 > 100 µM | KM12 > 100 µM | K562 > 100 µM

Cc1cc(C)c(C(=O)/C(=C/c2ccccc2)c2ccccc2)c(C)c1
inactive: SN12C 41.7 µM | NCI-H522 26.2 µM | ACHN 40.7 µM | SNB-19 > 100 µM | HOP-62 > 100 µM | EKVX 72.8 µM | UACC-62 > 100 µM | HOP-92 32.8 µM | Malme-3M 18.2 µM | UO-31 56.8 µM | RPMI-8226 37.1 µM | SF-295 51.6 µM | SK-MEL-28 > 100 µM | KM12 55.2 µM | K562 36.3 µM

Cc1ccnc(NC(=S)Nc2ccc([N+](=O)[O-])cc2)c1
inactive: Hs-578T 24 µM | ACHN > 100 µM | SNB-19 > 100 µM | HOP-62 78 µM | EKVX > 100 µM | T47D > 100 µM | UACC-62 > 100 µM | LOX IMVI > 100 µM | HOP-92 31.1 µM | UO-31 > 100 µM | RPMI-8226 > 100 µM | SF-295 62.8 µM | SK-MEL-28 > 100 µM | KM12 > 100 µM | K562 > 100 µM

CCSC1=CC(Cc2ccc(OC)cc2)N(C(=O)OC)C1 (centres undefined)
inactive: SN12C > 100 µM | NCI-H522 52.6 µM | ACHN > 100 µM | SNB-19 > 100 µM | HOP-62 > 100 µM | EKVX > 100 µM | UACC-62 65.8 µM | LOX IMVI 36.3 µM | HOP-92 55.2 µM | Malme-3M > 100 µM | UO-31 > 100 µM | SF-295 > 100 µM | SK-MEL-28 > 100 µM | KM12 97.7 µM | K562 34.3 µM

COc1ccc2c(c1)CC[C@@H]1C2CC[C@]2(C)C(=O)NC(=O)CC12 (some centres undefined)
inactive: SN12C > 100 µM | NCI-H522 > 100 µM | ACHN > 100 µM | SNB-19 > 100 µM | HOP-62 > 100 µM | EKVX 84.1 µM | UACC-62 > 100 µM | LOX IMVI > 100 µM | HOP-92 > 100 µM | Malme-3M > 100 µM | UO-31 97.7 µM | RPMI-8226 > 100 µM | SF-295 > 100 µM | KM12 > 100 µM | K562 25.2 µM

COC(=O)N/N=C(\C)c1c(O)cc(C)oc1=O
inactive: SN12C 78.5 µM | ACHN 25.8 µM | SNB-19 > 100 µM | HOP-62 36.2 µM | EKVX > 100 µM | UACC-62 5.62 µM | LOX IMVI 7.85 µM | HOP-92 > 100 µM | Malme-3M > 100 µM | UO-31 40.1 µM | SF-295 29.4 µM | SK-MEL-28 50.8 µM | KM12 52.6 µM | K562 17.5 µM

O=c1[nH]c(=O)n(C2CC(O)C(CO)O2)cc1OC/C=C/Cc1ccccc1 (centres undefined)
inactive: SN12C > 100 µM | NCI-H522 > 100 µM | Hs-578T > 100 µM | ACHN > 100 µM | SNB-19 > 100 µM | HOP-62 > 100 µM | EKVX > 100 µM | T47D > 100 µM | UACC-62 > 100 µM | LOX IMVI > 100 µM | Malme-3M > 100 µM | MDA-MB-231 > 100 µM | UO-31 > 100 µM | RPMI-8226 > 100 µM | SF-295 > 100 µM | SK-MEL-28 > 100 µM | KM12 > 100 µM | K562 > 100 µM

CCCCOC(=O)NC(=O)c1cn(CCCOC(=O)NCCCCCCNC(=O)OCCCn2cc(C(=O)NC(=O)OCCCC)c(=O)[nH]c2=O)c(=O)[nH]c1=O
inactive: SN12C > 100 µM | NCI-H522 > 100 µM | ACHN > 100 µM | SNB-19 48.4 µM | HOP-62 > 100 µM | EKVX > 100 µM | UACC-62 > 100 µM | LOX IMVI > 100 µM | HOP-92 23.6 µM | Malme-3M > 100 µM | UO-31 > 100 µM | RPMI-8226 > 100 µM | SF-295 > 100 µM | SK-MEL-28 > 100 µM | KM12 > 100 µM | K562 > 100 µM

CCOc1ccc(/N=C/c2c3ccccc3nc3ccccc23)cc1
inactive: SN12C > 100 µM | NCI-H522 49 µM | ACHN 62.1 µM | SNB-19 73.8 µM | HOP-62 39.4 µM | EKVX 95.3 µM | UACC-62 95.3 µM | LOX IMVI 40.1 µM | HOP-92 > 100 µM | Malme-3M 49.5 µM | UO-31 98.6 µM | RPMI-8226 21.8 µM | SF-295 59.6 µM | SK-MEL-28 > 100 µM | KM12 4.33 µM | K562 4.48 µM

S=c1sc2c(S)nc(S)nc2n1-c1ccccc1
inactive: SN12C > 100 µM | NCI-H522 41.5 µM | ACHN > 100 µM | SNB-19 > 100 µM | HOP-62 > 100 µM | EKVX > 100 µM | UACC-62 > 100 µM | LOX IMVI > 100 µM | HOP-92 42.4 µM | Malme-3M > 100 µM | UO-31 > 100 µM | RPMI-8226 > 100 µM | SF-295 > 100 µM | SK-MEL-28 > 100 µM | KM12 54.5 µM | K562 > 100 µM

O=C1C2C3C=C4c5ccccc5N(c5ccccc5)C4(C2C(=O)N1c1ccc(Br)cc1)[C@H]1C(=O)N(c2ccc(Br)cc2)C(=O)[C@@H]31 (some centres undefined)
inactive: SN12C > 100 µM | NCI-H522 > 100 µM | SNB-19 > 100 µM | HOP-62 > 100 µM | EKVX > 100 µM | UACC-62 > 100 µM | LOX IMVI 87.9 µM | HOP-92 84.3 µM | Malme-3M > 100 µM | UO-31 > 100 µM | RPMI-8226 3.41 µM | SF-295 > 100 µM | KM12 > 100 µM | K562 > 100 µM

COC(=O)[C@@]12OC[C@]34C([C@@H](O)C1O)[C@@]1(C)CC(=O)C(OC(=O)/C=C(/c5ccccc5)C(F)(F)F)=C(C)C1C[C@H]3OC(=O)[C@H](O)[C@H]42 (some centres undefined)
inactive: SN12C 7.93 µM | NCI-H522 6.35 µM | ACHN 13.9 µM | SNB-19 4.71 µM | HOP-62 12.4 µM | EKVX 38.6 µM | UACC-62 2.36 µM | HOP-92 5.86 µM | Malme-3M 7.91 µM | UO-31 35.7 µM | RPMI-8226 2.06 µM | SF-295 7.93 µM | SK-MEL-28 5.31 µM | KM12 14.4 µM | K562 9.4 µM
